The record followed here is publication PMC8838787, “The Antiproliferative and Apoptotic Effects of a Novel Quinazoline Carrying Substituted-Sulfonamides: In Vitro and Molecular Docking Study” (Molecules, 2022).

The test system of series [1] is A549 (lung) cancer cells. The series is described as follows: MTT cell viability assay, A549. In kind it is cell-based. The note with it: Homo sapiens, A549, 48 h, average ± SD (n = 3). The method, then: (§1) Compounds 4a–n were subjected to the cytotoxicity screening of the cell lines MCF-7 (breast), LoVo (colon), HepG2 (liver) and A549 (lung) carcinoma cells as well as HUVEC normal cell lines. The MTT assay was employed to assess cytotoxicity after 48 h of treatment with different concentrations of each compound and doxorubicin was used as a reference drug. The results were presented in Table 1 as growth inhibitory concentration (IC50 values).
(§2) Cell viability was determined using 3-(4,5-dimethylthiazol-2-yl)-2,5-diphenyl tetrazolium bromide (MTT) assay as stated previously. In brief, A549 (lung), HepG2 (liver), LoVo (colon), MCF-7 (breast) cancer cells as well as normal cells (HUVEC) were seeded in 96-well plates (10^5 per well) and compounds were added in a different final concentration. All cells were treated for 48 h, and then 10μL of MTT reagent (5 mg/mL) was added to each well and further incubated for 4 h. Thereafter, 0.1 mL of acidified isopropanol was added to solubilize formazan product and the developed color was measured at 570 nm in Microplate ELISA Reader (BioTek, Elx-800, Winooski, VT, USA). The IC50 values (concentration required for 50% inhibition of cell viability) were calculated using dose response curve. Cell viability was calculated as = (Ab Treated/Ab Control) × 100.
(§3) The A549, HepG2, LoVo and MCF-7 cancer cell lines were obtained from the German Collection of Microorganisms and Cell Cultures (DSMZ) (Braunschweig, Germany). For Human umbilical vein endothelial cells (HUVEC cells), it was purchased from American Type Culture Collection (16549; Cat no. PCS-100-010; ATTCC, Manassas, VA, USA).
A general note: Formazan colour is commonly taken as a measure of viable cells.

The test system of series [2] is MCF-7 (breast) cancer cells. Briefly: MTT cell viability assay, MCF-7. In kind it is cell-based, human. The note with it: for cytotoxic activity (in words, SAR discussion): 48 h; for IC50: Homo sapiens, MCF7, 48 h, average ± SD (n = 3). The protocol: as §1, §2, §3
Series [3] deals with HUVEC normal cells. Briefly: MTT cell viability assay, normal HUVEC. It counts as cell-based. The conditions noted are these: Homo sapiens, 48 h, average ± SD (n = 3). The method, then: as §1, §2, §3
The test system of series [4] is HepG2 (liver) cancer cells. Briefly: MTT cell viability assay, HepG2. In kind it is cell-based. The conditions noted are these: Homo sapiens, 48 h, average ± SD (n = 3). The method, then:
as §1, §2, §3

Series [5] has as its system LoVo (colon) cancer cells. The series is described as follows: MTT cell viability assay, LoVo. The note with it: Homo sapiens, 48 h, average ± SD (n = 3). It counts as cell-based. The protocol: as §1, §2, §3

Regarding `COc1cccc2c(=O)n(-c3ccc(S(=O)(=O)NCC(=O)Nc4cccc(C)c4)cc3)c(SCC(=O)Nc3cccc(C)c3)nc12` [Compound 4c], the melting point (commonly the temperature, or range, at which the solid turns liquid) lay in the range of 112 to 114 °C. Further, in series [1], the IC50 (commonly the concentration needed to halve the response being measured) is more than 40 µM. In series [2], the “cytotoxic activity (in words, SAR discussion)” value (“cytotoxic activity” for short) is reported as “abolishes the cytotoxicity” and the IC50 is more than 40 µM. In addition, the IC50 in series [3] is more than 40 µM. In series [4], the IC50 is more than 40 µM. In series [5], this molecule had an IC50 of more than 40 µM.
With `CCc1ccc(NC(=O)CNS(=O)(=O)c2ccc(-n3c(SCC(=O)Nc4ccc(CC)cc4)nc4c(OC)cccc4c3=O)cc2)cc1` [Compound 4g, N-(4-ethylphenyl)-2-((3-(4-(N-(2-((4-ethylphenyl)amino)-2-oxoethyl)sulfamoyl)-phenyl)-8-methoxy-4-oxo-3,4-dihydroquinazolin-2yl)thio)acetamide], the melting point lay in the range of 219 to 221 °C. In addition, the IC50 in series [1] was more than 40 µM. Further, in series [2], the “cytotoxic activity” value was “no antiproliferative” and the IC50 is more than 40 µM. Besides, the IC50 in series [3] is more than 40 µM. Besides, the IC50 in series [4] was more than 40 µM. For the same molecule, in series [5], the IC50 was more than 40 µM.
`COc1cc(NC(=O)CNS(=O)(=O)c2ccc(-n3c(SCC(=O)Nc4cc(OC)cc(OC)c4)nc4c(OC)cccc4c3=O)cc2)cc(OC)c1` [Compound 4j, N-(3,5-Dimethoxyphenyl)-2-((3-(4-N-(2((3,5-dimethoxyphenyl)amino)-2-oxoethyl)-sulfa-moyl)phenyl-8-methoxy-4-oxo-3,4-dihydroquinazolin-2-yl)thio)acetamide] gave a melting point of 239 to 241 °C. This molecule also registered an IC50 in series [1] of more than 40 µM. The molecule also yielded an IC50 in series [2] of more than 40 µM. The molecule further showed an IC50 in series [3] of more than 40 µM. Besides, the IC50 in series [4] is more than 40 µM. Besides, the concentration for half-maximal inhibition (IC50) in series [5] is more than 40 µM.
Consider `COc1cc(NC(=O)CNS(=O)(=O)c2ccc(-n3c(SCC(=O)Nc4cc(OC)c(OC)c(OC)c4)nc4c(OC)cccc4c3=O)cc2)cc(OC)c1OC` [Compound 4k], for which the melting point lay in the range of 260 to 262 °C. In series [1], this molecule had an IC50 of more than 40 µM. The molecule further returned an IC50 in series [2] of more than 40 µM. In series [3], this molecule returned an IC50 of more than 40 µM. This molecule showed an IC50 in series [4] of more than 40 µM. Also, the IC50 in series [5] is more than 40 µM.
As for `CCOc1ccc(NC(=O)CNS(=O)(=O)c2ccc(-n3c(SCC(=O)Nc4ccc(OCC)cc4)nc4c(OC)cccc4c3=O)cc2)cc1` [Compound 4i, N-(4-Ethoxyphenyl)-2-((3-(4-N-(2((4-ethoxyphenyl)amino)-2-oxoethyl)sulfamoyl)-phenyl-8-methoxy-4-oxo-3,4-dihydroquinazolin-2-yl)thio)acetamide], the melting point is more than 350 °C. The molecule further came in with an IC50 in series [1] of 13.8 ± 0.5 µM. The molecule also registered an IC50 in series [2] of 26.4 ± 0.79 µM. The IC50 in series [3] was determined as 18.2 ± 2.2 µM. Besides, inhibition in series [4] was half-maximal at 20.6 ± 1.6 µM (IC50). Besides, the IC50 in series [5] is 22 ± 1.01 µM.
In turn, `COc1cccc2c(=O)n(-c3ccc(S(=O)(=O)NCC(=O)Nc4ccc([N+](=O)[O-])cc4C)cc3)c(SCC(=O)Nc3ccc([N+](=O)[O-])cc3C)nc12` [Compound 4l, 2-(4-(8-Methoxy-2-((2-((2-methyl-4-nitrophenyl)amino)-2-oxoethyl)thio)-4-oxoquinazolin-3(4H)-yl)phenylsulfonamido)-N-(2-methyl-4-nitrophenyl)acetamide] had a melting point of 127 to 129 °C. Also, in series [1], the IC50 is more than 40 µM. In series [2], the IC50 is more than 40 µM. This molecule also gave an IC50 in series [3] of more than 40 µM. In series [4], this molecule came in with an IC50 of more than 40 µM. This molecule yielded an IC50 in series [5] of more than 40 µM.
In turn, `COc1cccc2c(=O)n(-c3ccc(S(=O)(=O)NCC(=O)Nc4c(C)cccc4[N+](=O)[O-])cc3)c(SCC(=O)Nc3c(C)cccc3[N+](=O)[O-])nc12` [Compound 4m, 2-(4-(8-Methoxy-2-((2-((2-methyl-6-nitrophenyl)amino)-2-oxoethyl)thio)-4-oxoquinazolin-3(4H)-yl)phenylsulfonamido)-N-(2-methyl-6-nitrophenyl)acetamide] returned a melting point of 272 to 274 °C. Besides, in series [1], the IC50 is more than 40 µM. In series [2], this molecule yielded an IC50 of more than 40 µM. Moreover, the IC50 in series [3] is more than 40 µM. The molecule further returned an IC50 in series [4] of more than 40 µM. Moreover, in series [5], the IC50 is more than 40 µM.
Regarding `COc1cccc2c1C(=O)c1c(O)c3c(c(O)c1C2=O)C[C@@](O)(C(=O)CO)C[C@@H]3O[C@H]1C[C@H](N)[C@H](O)[C@H](C)O1` [Doxorubicin, reference compound], the IC50 in series [1] came to 1.1 ± 0.01 µM; in series [2], 1.4 ± 0.3 µM; in series [3], 3.7 ± 0.2 µM; in series [5] it was 1.5 ± 0.05 µM.
For `CCc1ccccc1NC(=O)CNS(=O)(=O)c1ccc(-n2c(SCC(=O)Nc3ccccc3CC)nc3c(OC)cccc3c2=O)cc1` [Compound 4e, N-(2-ethylphenyl)-2-((3-(4-(N-(2-((2-ethylphenyl)amino)-2-oxoethyl)sulfamoyl)-phe-nyl)-8-methoxy-4-oxo-3,4-dihydroquinazolin-2yl)thio)acetamide], the melting point fell in the range of 246 to 248 °C. Also, in series [1], the IC50 was more than 40 µM. Besides, in series [2], the “cytotoxic activity” value is recorded as “no antiproliferative” and the IC50 was more than 40 µM. The molecule further registered an IC50 in series [3] of more than 40 µM. Further, the IC50 in series [4] is more than 40 µM. Besides, the IC50 in series [5] is more than 40 µM.
`COc1cccc2c(=O)n(-c3ccc(S(=O)(=O)NCC(=O)Nc4ccccc4C)cc3)c(SCC(=O)Nc3ccccc3C)nc12` [Compound 4b] came in with a melting point of 102 to 104 °C. In addition, in series [1], the IC50 came to 11.4 ± 1.6 µM. In series [2], the IC50 was determined as 36.2 ± 2 µM. This molecule also had an IC50 in series [3] of 32.7 ± 1.2 µM. In series [4], this molecule returned an IC50 of 33.7 ± 0.8 µM. In series [5], this molecule registered an IC50 of 35.8 ± 1 µM.
Turning to `COc1cccc2c(=O)n(-c3ccc(S(=O)(=O)NCC(=O)Nc4ccccc4)cc3)c(SCC(=O)Nc3ccccc3)nc12` [Compound 4a], the melting point fell in the range of 165 to 167 °C. This molecule registered an IC50 in series [1] of 19.6 ± 1.7 µM. In series [2], this molecule displayed a 50% inhibitory concentration (IC50) of 14.2 ± 0.4 µM. Also, the IC50 in series [3] turned out to be 20.9 ± 1 µM. The molecule also returned an IC50 in series [4] of 35 ± 1.2 µM. This molecule yielded an IC50 in series [5] of 37.5 ± 1.8 µM.
The molecule `COc1ccc(NC(=O)CNS(=O)(=O)c2ccc(-n3c(SCC(=O)Nc4ccc(OC)cc4)nc4c(OC)cccc4c3=O)cc2)cc1` [Compound 4h, 2-(4-(8-Methoxy-2-((2-((4-methoxyphenyl)amino)-2-oxoethyl)thio)-4-oxoquinazolin-3(4H)-yl)phenylsulfonamido)-N-(4-methoxy-phenyl)acetamide] yielded a melting point of 117 to 119 °C. For the same molecule, the IC50 in series [1] was determined as 13.3 ± 0.85 µM. In series [2], this molecule returned an IC50 of 31.6 ± 1.3 µM. In series [4], this molecule had an IC50 of 25.4 ± 0.95 µM. Besides, half-maximal inhibition in series [5] (IC50) was put at 31.7 ± 1 µM.
